Source: patent US12522602B2, “Derivatives having 2,3-dihydro-1H-indene or 2,3-dihydrobenzofuran moiety or pharmaceutically acceptable salt thereof and pharmaceutical compositions comprising the same” (YUHAN CORPORATION, priority 2019, dated 2026)

tested on: GM1 production in Jurkat cells; experiment: cells; format: cell-based; conditions: not given

`CC1(C)Cc2ccc(-c3cccc(OC(F)(F)F)c3)cc2C1NC(=O)O[C@@H]1CN2CCC1CC2` (stereo partly drawn) [Example 56, (S)-quinuclidin-3-yl (2,2-dimethyl-6-(3-(trifluoromethoxy)phenyl)-2,3-dihydro-1H-inden-1-yl)carbamate] showed an IC50 of 0.21 µM.

same assay, conditions: Homo sapiens, Jurkat, 72 h

Point of comparison: `CCCCOc1cccc(-c2cc3c(cc2OC)C(NC(=O)O[C@@H]2CN4CCC2CC4)C(C)(C)C3)c1` (stereo partly drawn) [Example 342, (S)-quinuclidin-3-yl (5-(3-butoxyphenyl)-6-methoxy-2,2-dimethyl-2,3-dihydro-1H-inden-1-yl)carbamate], IC50 0.0216 µM. Against it:
- O=C(NC1c2ccc(-c3cccc(Cl)c3)cc2CC12CC2)O[C@@H]1CN2CCC1CC2 (stereo partly drawn) [Example 393, (S)-quinuclidin-3-yl (5′-(3-chlorophenyl)-1′,3′-dihydrospiro[cyclopropane-1,2′-inden]-1′-yl)carbamate] — 2.5-fold higher, 0.0549 µM
- CCCCc1ccc(-c2ccc3c(c2)CC(CC)(CC)C3NC(=O)O[C@@H]2CN3CCC2CC3)cc1 (stereo partly drawn) [Example 280, (S)-quinuclidin-3-yl (5-(4-butylphenyl)-2,2-diethyl-2,3-dihydro-1H-inden-1-yl)carbamate] — 14-fold lower, 0.0016 µM
- CC1(C)Cc2ccc(-c3cc(F)ccc3F)cc2C1NC(=O)O[C@@H]1CN2CCC1CC2 (stereo partly drawn) [Example 65, (S)-quinuclidin-3-yl (6-(2,5-difluorophenyl)-2,2-dimethyl-2,3-dihydro-1H-inden-1-yl)carbamate] — 2.6-fold higher, 0.0562 µM
- CCC1(CC)Cc2cc(-c3ccc(OC)cc3)ccc2C1NC(=O)O[C@@H]1CN2CCC1CC2 (stereo partly drawn) [Example 283, (S)-quinuclidin-3-yl (2,2-diethyl-5-(4-methoxyphenyl)-2,3-dihydro-1H-inden-1-yl)carbamate] — within 1.5-fold, 0.0172 µM
- CC1(C)Cc2cc(-c3ccc(F)c(F)c3)ccc2C1NC(=O)O[C@@H]1CN2CCC1CC2 (stereo partly drawn) [Example 87, (S)-quinuclidin-3-yl (5-(3,4-difluorophenyl)-2,2-dimethyl-2,3-dihydro-1H-inden-1-yl)carbamate] — 2-fold higher, 0.0428 µM
- CSc1cc(-c2ccc3c(c2)CC(C)(C)C3NC(=O)O[C@@H]2CN3CCC2CC3)cc(C(F)(F)F)c1 (stereo partly drawn) [Example 248, (S)-quinuclidin-3-yl (2,2-dimethyl-5-(3-(methylthio)-5-(trifluoromethyl)phenyl)-2,3-dihydro-1H-inden-1-yl)carbamate] — within 1.5-fold, 0.0149 µM
- CCC1(CC)Cc2cc(-c3c(OC)cccc3OC)ccc2C1NC(=O)O[C@@H]1CN2CCC1CC2 (stereo partly drawn) [Example 300, (S)-quinuclidin-3-yl (5-(2,6-dimethoxyphenyl)-2,2-diethyl-2,3-dihydro-1H-inden-1-yl)carbamate] — within 1.5-fold, 0.023 µM
- COCOc1ccc(-c2ccc3c(c2)CC(C)(C)C3NC(=O)O[C@@H]2CN3CCC2CC3)cc1 (stereo partly drawn) [Example 100, (S)-quinuclidin-3-yl (5-(4-(methoxymethoxy)phenyl)-2,2-dimethyl-2,3-dihydro-1H-inden-1-yl)carbamate] — within 1.5-fold, 0.0215 µM
- CC1(C)Cc2cc(-c3ccc(F)c(Cl)c3)ccc2C1NC(=O)O[C@@H]1CN2CCC1CC2 (stereo partly drawn) [Example 261, (S)-quinuclidin-3-yl (5-(3-chloro-4-fluorophenyl)-2,2-dimethyl-2,3-dihydro-1H-inden-1-yl)carbamate] — 2.4-fold higher, 0.0515 µM
- CCc1cccc(-c2cc3c(cc2OC)C(NC(=O)O[C@@H]2CN4CCC2CC4)C(C)(C)C3)c1 (stereo partly drawn) [Example 334, (S)-quinuclidin-3-yl (5-(3-ethylphenyl)-6-methoxy-2,2-dimethyl-2,3-dihydro-1H-inden-1-yl)carbamate] — within 1.5-fold, 0.0209 µM
- COc1cc2c(cc1-c1cccc(OCC(C)C)c1)CC(C)(C)C2NC(=O)O[C@@H]1CN2CCC1CC2 (stereo partly drawn) [Example 343, (S)-quinuclidin-3-yl (5-(3-isobutoxyphenyl)-6-methoxy-2,2-dimethyl-2,3-dihydro-1H-inden-1-yl)carbamate] — 2.1-fold higher, 0.0457 µM
- CCCCOc1cccc(-c2cc3c(cc2F)C(NC(=O)O[C@@H]2CN4CCC2CC4)C(C)(C)C3)c1 (stereo partly drawn) [Example 379, (S)-quinuclidin-3-yl (5-(3-butoxyphenyl)-6-fluoro-2,2-dimethyl-2,3-dihydro-1H-inden-1-yl)carbamate] — within 1.5-fold, 0.0158 µM
- COc1cc(-c2cc3c(cc2OC)C(NC(=O)O[C@@H]2CN4CCC2CC4)C(C)(C)C3)ccn1 (stereo partly drawn) [Example 332, (S)-quinuclidin-3-yl (6-methoxy-5-(2-methoxypyridin-4-yl)-2,2-dimethyl-2,3-dihydro-1H-inden-1-yl)carbamate] — 7.3-fold higher, 0.158 µM
- CC1(C)Cc2cc(-c3ccnc(C(F)(F)F)c3)ccc2C1NC(=O)O[C@@H]1CN2CCC1CC2 (stereo partly drawn) [Example 118, (S)-quinuclidin-3-yl (2,2-dimethyl-5-(2-(trifluoromethyl)pyridin-4-yl)-2,3-dihydro-1H-inden-1-yl)carbamate] — 1.8-fold higher, 0.0384 µM
- O=C(NC1CCc2cc(-c3cc(F)c(F)cc3F)ccc21)O[C@@H]1CN2CCC1CC2 (stereo partly drawn) [Example 21, (S)-quinuclidin-3-yl (5-(2,4,5-trifluorophenyl)-2,3-dihydro-1H-inden-1-yl)carbamate] — 5.9-fold higher, 0.127 µM
- CC1(C)Cc2cc(-c3ccc(Cl)c(F)c3)ccc2C1NC(=O)O[C@@H]1CN2CCC1CC2 (stereo partly drawn) [Example 242, (S)-quinuclidin-3-yl (5-(4-chloro-3-fluorophenyl)-2,2-dimethyl-2,3-dihydro-1H-inden-1-yl)carbamate] — 3-fold higher, 0.0644 µM
- CCC1(CC)Cc2cc(-c3cccc(C(C)C)c3)ccc2C1NC(=O)O[C@@H]1CN2CCC1CC2 (stereo partly drawn) [Example 293, (S)-quinuclidin-3-yl (2,2-diethyl-5-(3-isopropylphenyl)-2,3-dihydro-1H-inden-1-yl)carbamate] — 2.5-fold lower, 0.0087 µM
- CC1(C)Cc2cc(-c3ccc4c(c3)OC(F)(F)O4)ccc2C1NC(=O)O[C@@H]1CN2CCC1CC2 (stereo partly drawn) [Example 111, (S)-quinuclidin-3-yl (5-(2,2-difluorobenzo[d][1,3]dioxol-5-yl)-2,2-dimethyl-2,3-dihydro-1H-inden-1-yl)carbamate] — within 1.5-fold, 0.032 µM
- O=C(NC1CCc2cc(-c3cccc(C(F)(F)F)c3)ccc21)O[C@@H]1CN2CCC1CC2 (stereo partly drawn) [Example 7, (S)-quinuclidin-3-yl (5-(3-(trifluoromethyl)phenyl)-2,3-dihydro-1H-inden-1-yl)carbamate] — 1.7-fold higher, 0.0368 µM
- CCCCOc1ccc(F)cc1-c1ccc2c(c1)CC(C)(C)C2NC(=O)O[C@@H]1CN2CCC1CC2 (stereo partly drawn) [Example 201, (S)-quinuclidin-3-yl (5-(2-butoxy-5-fluorophenyl)-2,2-dimethyl-2,3-dihydro-1H-inden-1-yl)carbamate] — 1.8-fold higher, 0.0382 µM
- O=C(NC1CCc2cc(-c3cccc(F)c3)ccc21)O[C@@H]1CN2CCC1CC2 (stereo partly drawn) [Example 5, (S)-quinuclidin-3-yl (5-(3-fluorophenyl)-2,3-dihydro-1H-inden-1-yl)carbamate] — 3.2-fold higher, 0.0702 µM
- CC1(C)Cc2cc(-c3ccc(OCC4CC4)nc3)c(F)cc2C1NC(=O)O[C@@H]1CN2CCC1CC2 (stereo partly drawn) [Example 363, (S)-quinuclidin-3-yl (5-(6-(cyclopropylmethoxy)pyridin-3-yl)-6-fluoro-2,2-dimethyl-2,3-dihydro-1H-inden-1-yl)carbamate] — 2.5-fold lower, 0.0087 µM
- O=C(NC1CCc2cc(-c3ccccc3Cl)ccc21)O[C@@H]1CN2CCC1CC2 (stereo partly drawn) [Example 10, (S)-quinuclidin-3-yl (5-(2-chlorophenyl)-2,3-dihydro-1H-inden-1-yl)carbamate] — 3-fold higher, 0.0655 µM
- CCOc1ccc(-c2cc3c(cc2F)C(NC(=O)O[C@@H]2CN4CCC2CC4)C(C)(C)C3)cc1F (stereo partly drawn) [Example 387, (S)-quinuclidin-3-yl (5-(4-ethoxy-3-fluorophenyl)-6-fluoro-2,2-dimethyl-2,3-dihydro-1H-inden-1-yl)carbamate] — 2.2-fold higher, 0.0482 µM
- COc1cc(OC)cc(-c2ccc3c(c2)CC(C)(C)C3NC(=O)O[C@@H]2CN3CCC2CC3)c1 (stereo partly drawn) [Example 169, (S)-quinuclidin-3-yl (5-(3,5-dimethoxyphenyl)-2,2-dimethyl-2,3-dihydro-1H-inden-1-yl)carbamate] — 2.2-fold lower, 0.0098 µM
- CCC1(CC)Cc2cc(-c3ccsc3)ccc2C1NC(=O)O[C@@H]1CN2CCC1CC2 (stereo partly drawn) [Example 306, (S)-quinuclidin-3-yl (2,2-diethyl-5-(thiophen-3-yl)-2,3-dihydro-1H-inden-1-yl)carbamate] — within 1.5-fold, 0.0275 µM
- CC1(C)Cc2cc(-c3ccc(C4CC4)cc3)ccc2C1NC(=O)O[C@@H]1CN2CCC1CC2 (stereo partly drawn) [Example 131, (S)-quinuclidin-3-yl (5-(4-cyclopropylphenyl)-2,2-dimethyl-2,3-dihydro-1H-inden-1-yl)carbamate] — 2-fold lower, 0.0106 µM
- CC1(C)Cc2cc(-c3cc(F)ccc3F)ccc2C1NC(=O)O[C@@H]1CN2CCC1CC2 (stereo partly drawn) [Example 88, (S)-quinuclidin-3-yl (5-(2,5-difluorophenyl)-2,2-dimethyl-2,3-dihydro-1H-inden-1-yl)carbamate] — 1.9-fold lower, 0.0111 µM
- CC1(C)Cc2ccc(-c3cccc(F)c3)cc2C1NC(=O)O[C@@H]1CN2CCC1CC2 (stereo partly drawn) [Example 53, (S)-quinuclidin-3-yl (6-(3-fluorophenyl)-2,2-dimethyl-2,3-dihydro-1H-inden-1-yl)carbamate] — 3.7-fold higher, 0.08 µM
- Cc1cscc1-c1ccc2c(c1)CC(C)(C)C2NC(=O)O[C@@H]1CN2CCC1CC2 (stereo partly drawn) [Example 138, (S)-quinuclidin-3-yl (2,2-dimethyl-5-(4-methylthiophen-3-yl)-2,3-dihydro-1H-inden-1-yl)carbamate] — 2.4-fold lower, 0.0091 µM
- O=C(NC1c2ccc(-c3ccc(OC(F)(F)F)cc3)cc2CC12CC2)O[C@@H]1CN2CCC1CC2 (stereo partly drawn) [Example 392, (S)-quinuclidin-3-yl (5′-(4-(trifluoromethoxy)phenyl)-1′,3′-dihydrospiro[cyclopropane-1,2′-inden]-1′-yl)carbamate] — 1.9-fold higher, 0.0419 µM
- O=C(NC1CCc2cc(-c3cc(Cl)cc(Cl)c3)ccc21)O[C@@H]1CN2CCC1CC2 (stereo partly drawn) [Example 22, (S)-quinuclidin-3-yl (5-(3,5-dichlorophenyl)-2,3-dihydro-1H-inden-1-yl)carbamate] — 4.1-fold higher, 0.0896 µM
- COc1ccc(OC)c(-c2cc3c(cc2F)C(NC(=O)O[C@@H]2CN4CCC2CC4)C(C)(C)C3)c1 (stereo partly drawn) [Example 382, (S)-quinuclidin-3-yl (5-(2,5-dimethoxyphenyl)-6-fluoro-2,2-dimethyl-2,3-dihydro-1H-inden-1-yl)carbamate] — within 1.5-fold, 0.0313 µM

same assay, conditions: read-out: IC50

Work on “(S)-quinuclidin-3-yl (6-(3-(2-methoxyethoxy)phenyl)-2,2-dimethyl-2,3-dihydrobenzofuran-3-yl)carbamate [Example 411]” yielded an IC50 of 0.0793 µM.
